The values that follow come from patent publication US12168653B2, “Sulfonamide derivates as NLRP3 inhibitors” (Inflazome Limited, priority 2018, dated 2024).

For this experiment, the system named is NLRP3. Kind of experiment: THP-1 cells pyroptosis assay (LPS/nigericin, resazurin read-out). Type of experiment: cell-based. Conditions: Homo sapiens. How it is done: THP-1 cells (ATCC #TIB-202) were grown in RPMI containing L-glutamine (Gibco #11835) supplemented with 1 mM sodium pyruvate (Sigma #S8636) and penicillin (100 units/ml)/streptomycin (0.1 mg/ml) (Sigma #P4333) in 10% Fetal Bovine Serum (FBS) (Sigma #F0804). The cells were routinely passaged and grown to confluency (˜10^6 cells/ml). On the day of the experiment, THP-1 cells were harvested and resuspended into RPMI medium (without FBS). The cells were then counted and viability (>90%) checked by Trypan blue (Sigma #T8154). Appropriate dilutions were made to give a concentration of 625,000 cells/ml. To this diluted cell solution was added LPS (Sigma #L4524) to give a 1 μg/ml Final Assay Concentration (FAC). 40 μl of the final preparation was aliquoted into each well of a 96-well plate. The plate thus prepared was used for compound screening.
The following method step-by-step assay was followed for compound screening. • 1. Seed THP-1 cells (25,000 cells/well) containing 1.0 μg/ml LPS in 40 μl of RPMI medium (without FBS) in 96-well, black walled, clear bottom cell culture plates coated with poly-D-lysine (VWR #734-0317) • 2. Add 5 μl compound (8 points half-log dilution, with 10 μM top dose) or vehicle (DMSO 0.1% FAC) to the appropriate wells • 3. Incubate for 3 hrs at 37° C., 5% CO2 • 4. Add 5 μl nigericin (Sigma #N7143) (FAC 5 μM) to all wells • 5. Incubate for 1 hr at 37° C., 5% CO2 • 6. At the end of the incubation period, spin plates at 300×g for 3 mins and remove supernatant • 7. Then add 50 μl of resazurin (Sigma #R7017) (FAC 100 μM resazurin in RPMI medium without FBS) and incubate plates for a further 1-2 hrs at 37° C. and 5% CO2 • 8. Plates were read in an Envision reader at Ex 560 nm and Em 590 nm • 9. IC50 data is fitted to a non-linear regression equation (log inhibitor vs response-variable slope 4-parameters) 96-Well Plate Map
(Alamar Blue is a resazurin reagent that responds to reducing activity.)

Where [1] appears, read: THP-1 cells, 1 μg/ml LPS, 3 hrs compound, 5 μM nigericin 1 hr, NLRP3 inhibitory activity, read-out: THP IC50.

Usually IC50 stands for the concentration that gives 50% inhibition.

Molecules are shown by their SMILES. Counter-ions that a name gives are not always drawn. Like-named read-outs stand apart in the source and are kept apart here.

On to `CC(C)c1cc(F)cc(C(C)C)c1CC(=O)NS(=O)(=O)N(C)C1CCN(C)C1` (centres unmarked) [Example 5, 2-(4-Fluoro-2,6-diisopropylphenyl)-N—(N-methyl-N-(1-methylpyrrolidin-3-yl)sulfamoyl)acetamide], for which the IC50 under setting [1] is under 5 µM.

With `CCN(CC)CCCS(=O)(=O)NC(=O)Cc1c2c(cc3c1CCC3)CCC2` [Example 4, N-((3-(Diethylamino)propyl)sulfonyl)-2-(1,2,3,5,6,7-hexahydro-s-indacen-4-yl)acetamide], under setting [1], the IC50 is under 10 µM.

In the case of `COc1cc(-c2cc(F)cc(C(C)C)c2CC(=O)NS(=O)(=O)N(C)C2CCN(C)C2)ccn1` (centres unmarked) [Example 8, 2-(4-Fluoro-2-isopropyl-6-(2-methoxypyridin-4-yl)phenyl)-N—(N-methyl-N-(1-methylpyrrolidin-3-yl)sulfamoyl)acetamide, Potassium Salt], the IC50 (THP-1, read-out: THP IC50) was under 5 µM.

As to `COc1cc(-c2cc(F)cc(C(C)C)c2CC(=O)NS(=O)(=O)C[C@]23CCC(CC2=O)C3(C)C)ccn1` [Example 7, N-((((1S)-7,7-Dimethyl-2-oxobicyclo[2.2.1]heptan-1-yl)methyl)sulfonyl)-2-(4-fluoro-2-isopropyl-6-(2-methoxypyridin-4-yl)phenyl)acetamide, Potassium Salt], where the note is “THP-1, read-out: THP IC50”, the IC50 is under 10 µM.

Take `CCN(CC)CCCS(=O)(=O)NC(=O)Cc1c(-c2ccnc(OC)c2)ccc2c1CCC2` [Example 2, N-((3-(Diethylamino)propyl)sulfonyl)-2-(5-(2-methoxypyridin-4-yl)-2,3-dihydro-1H-inden-4-yl)acetamide]: the IC50 under setting [1] was under 10 µM.

Take `COc1cc(-c2ccc3c(c2CC(=O)NS(=O)(=O)N(C)C2CCN(C)C2)CCC3)ccn1` (centres unmarked) [Example 1, 2-(5-(2-Methoxypyridin-4-yl)-2,3-dihydro-1H-inden-4-yl)-N—(N-methyl-N-(1-methylpyrrolidin-3-yl)sulfamoyl)acetamide, Potassium Salt]: the IC50 (THP-1, read-out: THP IC50) was under 5 µM.

For `COc1cc(-c2cc(F)cc(C(C)C)c2CC(=O)NS(=O)(=O)CCCC(C)(C)O)ccn1` [Example 10, 2-(4-Fluoro-2-isopropyl-6-(2-methoxypyridin-4-yl)phenyl)-N-((4-hydroxy-4-methylpentyl)sulfonyl)acetamide, Potassium Salt], the concentration for half-maximal inhibition (IC50) (THP-1, read-out: THP IC50) is under 10 µM.

For `COc1cc(-c2cc(F)cc(C(C)C)c2CC(=O)NS(=O)(=O)CC2(C#N)CCCCC2)ccn1` [Example 11], under setting [1], the half-inhibitory concentration (IC50) is under 1 µM.

For the compound `COc1cc(-c2cc(F)cc(C(C)C)c2CC(=O)NS(=O)(=O)C[C@@]23CC[C@@H](C[C@H]2O)C3(C)C)ccn1` [Example 9, 2-(4-Fluoro-2-isopropyl-6-(2-methoxypyridin-4-yl)phenyl)-N-((((1R,2R,4S)-2-hydroxy-7,7-dimethylbicyclo[2.2.1]heptan-1-yl)methyl)sulfonyl)acetamide, Potassium Salt], the IC50 (THP-1, read-out: THP IC50) is under 5 µM.

`CCN(CC)CCCS(=O)(=O)NC(=O)Cc1c(-c2ccnc(OC)c2)cc(F)cc1C(C)C` [Example 3, N-((3-(Diethylamino)propyl)sulfonyl)-2-(4-fluoro-2-isopropyl-6-(2-methoxypyridin-4-yl)phenyl)acetamide, Potassium Salt]: the IC50 (THP-1, read-out: THP IC50) was under 5 µM.

With `CCN(CC)CCCS(=O)(=O)NC(=O)Cc1c(C(C)C)cc(F)cc1C(C)C` [Example 6, N-((3-(Diethylamino)propyl)sulfonyl)-2-(4-fluoro-2,6-diisopropylphenyl)acetamide], the IC50 under setting [1] was under 10 µM.
